Results reported in publication PMC5484114 (Marine Drugs, 2017).
Where a SMILES comes first, the peptide text is derived from it. Bridges are numbered along the chain shown (N, C = ends). Roman numbers before positions name the chains, in order.

Assays:
hα9α10 nAChR = hα9α10 nAChR (Homo sapiens, UniProt Q9GZZ6+Q9UGM1); assay: cell-based; format: cell-based
hα3β2 nAChR = format: cell-based, human
hα4β2 nAChR = format: cell-based, human
hα3β4 nAChR = format: cell-based, human
hα4β4 nAChR = format: cell-based, human
hα7 nAChR = format: cell-based, human
nAChR subtypes = format: cell-based, human; rodent

hα9α10 nAChR, sequence (Q9UGM1 26-479 limits assumed): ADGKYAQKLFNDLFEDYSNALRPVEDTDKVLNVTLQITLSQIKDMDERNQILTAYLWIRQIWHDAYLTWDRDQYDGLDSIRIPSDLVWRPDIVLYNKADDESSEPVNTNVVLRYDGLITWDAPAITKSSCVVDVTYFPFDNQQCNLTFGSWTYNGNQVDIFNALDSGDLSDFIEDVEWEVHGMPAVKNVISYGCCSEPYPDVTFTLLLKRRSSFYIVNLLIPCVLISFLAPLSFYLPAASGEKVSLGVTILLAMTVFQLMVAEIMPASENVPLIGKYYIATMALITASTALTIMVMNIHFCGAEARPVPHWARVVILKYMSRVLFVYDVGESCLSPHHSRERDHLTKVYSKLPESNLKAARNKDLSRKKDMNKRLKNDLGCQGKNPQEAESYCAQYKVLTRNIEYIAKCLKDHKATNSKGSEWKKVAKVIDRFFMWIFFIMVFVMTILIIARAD
hα9α10 nAChR, sequence (Q9GZZ6 25-450 limits assumed): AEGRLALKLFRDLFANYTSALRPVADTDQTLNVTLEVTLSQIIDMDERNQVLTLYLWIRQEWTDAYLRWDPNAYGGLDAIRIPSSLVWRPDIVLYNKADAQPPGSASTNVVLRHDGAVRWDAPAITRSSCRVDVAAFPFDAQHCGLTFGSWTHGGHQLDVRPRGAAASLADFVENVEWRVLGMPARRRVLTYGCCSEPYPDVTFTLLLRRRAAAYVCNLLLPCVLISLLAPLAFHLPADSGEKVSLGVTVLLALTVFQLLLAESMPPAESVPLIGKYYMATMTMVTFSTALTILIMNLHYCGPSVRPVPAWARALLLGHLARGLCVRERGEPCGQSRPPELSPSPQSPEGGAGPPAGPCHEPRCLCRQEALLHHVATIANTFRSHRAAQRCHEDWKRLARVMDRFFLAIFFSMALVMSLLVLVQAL

Row | Compound | IC50 (hα9α10 nAChR) | Hill Slope (nH) at hα9α10 (hα9α10 nAChR) | reduction of ACh-evoked current amplitude at hα3β2 (hα3β2 nAChR) | reduction of ACh-evoked current amplitude at hα4β2 (hα4β2 nAChR) | effect on ACh-evoked currents of hα3β4 (hα3β4 nAChR) | effect on ACh-evoked currents of hα4β4 (hα4β4 nAChR) | effect on ACh-evoked currents of hα7 (hα7 nAChR) | nAChR subtype preference (nAChR subtypes)
1 | CC(C)[C@@H]1NC(=O)[C@H](CCCNC(=N)N)NC(=O)CNC(=O)[C@@H]2CCCN2C(=O)[C@H](CCCNC(=N)N)NC(=O)[C@H](C(C)C)NC(=O)[C@H](CO)NC(=O)[C@H](CCC(N)=O)NC(=O)[C@@H](N)CSSC[C@@H](C(=O)O)NC(=O)[C@H](CCCCN)NC(=O)CNC(=O)[C@H](Cc2c[nH]c3ccccc23)NC(=O)[C@H](C(C)C)NC(=O)[C@H](CCCNC(=N)N)NC(=O)CNC(=O)[C@@H]2CCCN2C(=O)[C@H](CCCNC(=N)N)NC(=O)[C@H](C(C)C)NC(=O)[C@H](CO)NC(=O)[C@H](CCC(N)=O)NC(=O)[C@@H]2CCCN2C(=O)CNC(=O)[C@@H]2CCCN2C(=O)[C@H](CCCCN)NC(=O)CNC(=O)[C@H](Cc2c[nH]c3ccccc23)NC1=O [cNTD] (H-CQSVRPGRVWGKPGPQSVRPGRVWGKC-OH; disulfide 1-27) | 2.66 µM | – | – | – | – | – | – | –
2 | CC(C)C[C@H](NC(=O)[C@H](CO)NC(=O)[C@@H]1CSSC[C@H](NC(=O)[C@@H]2CCCN2C(=O)[C@H](CCCNC(=N)N)NC(=O)[C@H](Cc2c[nH]cn2)NC(=O)[C@@H](NC(=O)[C@@H](N)CC(=O)O)C(C)C)C(=O)N[C@@H](CCC(N)=O)C(=O)N[C@@H](CO)C(=O)N[C@@H](C(C)C)C(=O)N[C@@H](CCCNC(=N)N)C(=O)N2CCC[C@H]2C(=O)NCC(=O)N[C@@H](CCCNC(=N)N)C(=O)N[C@@H](C(C)C)C(=O)N[C@@H](Cc2c[nH]c3ccccc23)C(=O)NCC(=O)N[C@@H](CCCCN)C(=O)N[C@H](C(=O)N[C@@H](CO)C(=O)N[C@@H](CC(C)C)C(=O)O)CSSC[C@H](NC(=O)[C@@H]2CCCN2C(=O)[C@H](CCCNC(=N)N)NC(=O)[C@H](Cc2c[nH]cn2)NC(=O)[C@@H](NC(=O)[C@@H](N)CC(=O)O)C(C)C)C(=O)N[C@@H](CCC(N)=O)C(=O)N[C@@H](CO)C(=O)N[C@@H](C(C)C)C(=O)N[C@@H](CCCNC(=N)N)C(=O)N2CCC[C@H]2C(=O)NCC(=O)N[C@@H](CCCNC(=N)N)C(=O)N[C@@H](C(C)C)C(=O)N[C@@H](Cc2c[nH]c3ccccc23)C(=O)NCC(=O)N[C@@H](CCCCN)C(=O)N1)C(=O)O [NTD] (I: H-DVHRPCQSVRPGRVWGKCSL-OH / II: H-DVHRPCQSVRPGRVWGKCSL-OH; disulfide I:6-II:18, I:18-II:6) | – | −0.9 | approximately 50% | approximately 50% | not markedly affected | not markedly affected | not markedly affected | prefers β2-containing rather than β4-containing nAChR subtypes
